Patent US10238689B2, “Methods for combating bacterial infections by killing persister cells with mitomycin C and/or cisplatin” (THE PENN STATE RESEARCH FOUNDATION, priority 2015, dated 2019)
In brackets after ≈: the same amount, converted by molar mass. Where two headings read alike, the source gives them in different places.

What was measured:
E. coli K-12 [1] = assay: Minimum inhibitory concentration (MIC) assay; format: cell-based, Escherichia coli; conditions: Escherichia coli, K12, 16 h, lack of turbidity, read-out: MIC
Description: Minimum inhibitory concentration (MIC) assay. To determine the MICs of cisplatin for E. coli K-12, enterohemorrhagic E. coli (EHEC), S. aureus, and P. aeruginosa (PAO1 and PA14), freshly inoculated cultures (at least two independent cultures) in buffered LB (TSB for S. aureus) were incubated for 16 h with varying concentrations of cisplatin, and growth inhibition was assayed by the lack of turbidity.

EHEC infection = format: in vivo, Caenorhabditis elegans; conditions: MMC 10 μg/mL, ciprofloxacin 5 μg/mL, ampicillin 100 μg/mL, 6 h exposure; four replicates
E. coli BW25113 = assay: Validation of persisters (three rounds of the persister assay); format: cell-based, Escherichia coli; conditions: for survival rate: ciprofloxacin 5 μg/mL or ampicillin 100 μg/mL, 3 h
Description: Validation of persisters. To validate that the persister cells are tolerant to antibiotics, not spontaneous resistant mutants, three rounds of the persister assay were performed. Overnight (16 h) cultures of E. coli BW25113 were diluted 1:1000 with fresh buffered LB and grown to a turbidity of ˜0.8 at 600 nm. […] After the first round of antibiotic treatment, a 1 mL sample was centrifuged at 10,000 rpm for 3 min, and the cells were resuspended in 1 mL of normal saline. […] For the second and third rounds, cell suspensions were diluted 1:100 with fresh buffered LB and regrown to a turbidity of ˜0.8 at 600 nm and used for antibiotic treatment followed by the drop assay.

E. coli K-12 cells = assay: Test of DNA crosslinking compounds for antimicrobial activity; format: cell-based, Escherichia coli
Description: Stocks of cisplatin (2 mg/mL, Sigma-Aldrich, St. Louis, Mo., USA) were prepared in 0.1M NaClO4 and MMC (0.5 mg/mL, Fisher Scientific, Pittsburgh, Pa., USA) was prepared in water. Stocks of busulfan (2 mg/mL, Cayman Chemical, Ann Arbor, Mich., USA), melphalan (2 mg/mL, Cayman Chemical), dynemicin A (5 mg/mL, AdooQ, Irvine, Calif., USA), and tirapazamine (0.5 mg/mL, Sigma-Aldrich) were prepared in dimethylsulfoxide, the stock of cyclophosphamide (0.5 mg/mL, Cayman Chemical) was prepared in water, and the stock of carmustine (214 mg/mL, Enzo Life Sciences, Farmingdale, N.Y., USA) was prepared in ethanol.
In this Example we tested seven other DNA crosslinking compounds: busulfan (100 μg/mL), carmustine (100 μg/mL) cisplatin (100 μg/mL), cyclophosphamide (100 μg/mL), dynemicin A (200 μg/mL), melphalan (100 μg/mL), and tirapazamine (10 μg/mL).

E. coli K-12 [2] = assay: Planktonic antibiotic killing assay; format: cell-based, Escherichia coli; conditions: for persistence (surviving population): late-stationary phase, MMC 10, ciprofloxacin 5, gentamicin 10 μg/mL, 3 h
Description: (§1) In order to obtain exponential and mid-stationary phase cultures in LB, buffered LB or TSB, overnight cultures (16 h) were diluted 1:1000 in fresh medium and grown to the desired turbidity (i.e., a turbidity below 2 at 600 nm for exponential phase and a turbidity of 3 to 4 at 600 nm for mid-stationary phase). Late-stationary phase cultures in LB or buffered LB were obtained by growing overnight cultures (16 h). In order to obtain exponential and late-stationary phase cultures in M9-glucose, overnight cultures (16 h) were washed diluted 1:1000 in M9-glucose and grown for the desired period of time (i.e., a turbidity of 0.4 at 600 nm for exponential phase and 24 h of growth for late-stationary phase). Anaerobically grown cultures were maintained with ˜20% CO2, ˜79% N2, and ˜1% H2. In order to obtain rifampicin-induced persister cultures in buffered LB, overnight cultures (16 h) were diluted 1:1000 in fresh medium and grown to a turbidity of 0.8 at 600 nm. Cultures were exposed to rifampicin (100 μg/mL) for 30 min, centrifuged, and resuspended in fresh medium to remove the rifampicin.

E. coli O157:H7 (EHEC) = assay: Planktonic antibiotic killing assay; format: cell-based, Escherichia coli; conditions: late-stationary phase, M9-glucose; MMC 10 μg/mL, ciprofloxacin 5 μg/mL, 3 h
Description: as §1

[3] = system: E. coli K-12 BW25113 VBNC cultures; assay: VBNC antibiotic killing assay; format: cell-based, Escherichia coli; conditions: culturable population of VBNC cultures; MMC 10 μg/mL, ciprofloxacin 5 μg/mL, 16 h
Description: Overnight cultures (16 h) of E. coli K-12 BW25113 grown in LB were diluted 1:1000 in LB and grown to a turbidity of 3.0 at 600 nm. Cells were washed three times with 0.85% NaCl to remove nutrients and incubated in 0.85% NaCl for 32 days until the VBNC population was ˜1,000-fold higher than the culturable population. […] Samples (0.5 mL) were diluted 1:1 with LB to stimulate cellular respiration for 10 min prior to staining with 1 μL of 1 mM RedoxSensor™ Green dye and 1 μL of 20 mM propidium iodide. Samples were visualized in a hemocytometer (Hausser Scientific, Horsham, Pa., USA) using an Olympus BX61 confocal microscope (Olympus, Tokyo, Japan) at 200× magnification in order to determine viability of the VBNC population. Cell counting data was averaged from four images and experiment was performed with at least two independent cultures.

[4] = system: S. aureus (methicillin sensitive); assay: Planktonic antibiotic killing assay; format: cell-based, Staphylococcus aureus; conditions: rich medium (TSB), MMC 10 μg/mL, ciprofloxacin 5 μg/mL, 3 h
Description: as §1

[5] = system: S. aureus biofilm cultures; assay: Biofilm antibiotic killing assay; format: cell-based, Staphylococcus aureus; conditions: minimal medium (modified M9-glucose), 24 h treatment, MMC 10 μg/mL, ciprofloxacin 5 μg/mL
E. coli K-12 [6] = format: cell-based, Escherichia coli; conditions: late stationary phase (16 h of growth), buffered LB; cisplatin 500 μg/mL (5×MIC), ciprofloxacin 5 μg/mL (100×MIC), 8 h
Description: Persister cell killing and eradication assays (planktonic cells). For the time course experiment, late stationary phase cells of E. coli K-12 (wild-type and isogenic mutants) were prepared by growing cells overnight (16 h) in LB medium buffered with 100 mM KPO4 at pH 7.0 (buffered LB). A 1 mL culture was used for a drop (10 μL×3) assay to check cell viability at 0 h (i.e., before antibiotic treatment). […] At 1 h intervals, 1 mL culture was centrifuged at 10,000 rpm for 3 min, the supernatant was discarded, the cells were resuspended in 1 mL of normal saline (0.85% NaCl), and the cell suspension was serially diluted for a drop assay to check cell viability.
To test for eradication, the wild-type E. coli K-12 cells were treated with cisplatin for 12 h, a 1 mL sample was centrifuged, the cell pellet was resuspended in 150 μL of normal saline, and the cells were spread on LB agar to check cell viability. Another 1 mL culture was diluted 1:10 with fresh buffered LB and the cells were incubated to allow any remaining cells to replicate. After 12 h, 18 h, and 24 h, 1 mL samples were centrifuged, resuspended in 150 μL of normal saline and spread on LB agar plates to check cell viability. At least two independent cultures were used.

[7] = system: E. coli K-12 persister cells; assay: Rifampicin-induced persister cell killing assay; format: cell-based, Escherichia coli
Description: Rifampicin-pretreatment was used to convert nearly all the E. coli exponentially-growing cells to persister cells. In brief, overnight cultures (16 h) of E. coli BW25113 were diluted 1:1000 in buffered LB and grown to a turbidity of 0.8 at 600 nm (250 mL flask, 250 rpm). Cultures were treated with rifampicin (100 μg/mL) for 30 min (250 mL flask, 250 rpm), centrifuged, and resuspended in fresh medium to remove the rifampicin. A 1 mL culture was used for a drop assay to check cell viability at 0 h. […] After 3 h, 1 mL of culture was centrifuged at 10,000 rpm for 3 min, the supernatant was discarded, the cells were resuspended in 1 mL of normal saline, and the cell suspension was serially diluted for a drop assay to check cell viability. In addition, 1 mL samples were centrifuged, and the cell pellet resuspended in 150 μL of normal saline and spread on LB agar.
To test whether lower concentrations than 500 μg/mL of cisplatin generate resistant mutants, 5 mL cultures of rifampicin-induced persister cells were treated with 200 μg/mL of cisplatin and cells were enumerated by the drop assay using LB agar, LB agar with 200 μg/mL of cisplatin (LBCP200), and LB agar with 500 μg/mL of cisplatin (LBCP500).

EHEC biofilm cultures = conditions: M9-glucose, 24 h treatment, MMC 10 μg/mL, ciprofloxacin 5 μg/mL

Compound: CC1(C)S[C@@H]2[C@H](NC(=O)[C@H](N)c3ccccc3)C(=O)N2[C@H]1C(=O)O [ampicillin]
- MIC (E. coli K-12 [1]): 10 µg/mL (≈ 28.6 µM)
- survival of the EHEC-infected worms (EHEC infection): enhanced the survival
- resistant colonies on antibiotic agar (E. coli BW25113; LBCipro5 or LBAmp100 agar): no colonies were detected
- survival rate (E. coli BW25113; round 1): 0.001±0.001%
- survival rate (E. coli BW25113; round 2): 0.0001±0.0000%
- survival rate (E. coli BW25113; round 3): 0.0001±0.0000%

Compound: CS(=O)(=O)OCCCCOS(C)(=O)=O [busulfan]
- antimicrobial activity (E. coli K-12 cells; 100 μg/mL): only cisplatin exhibited antimicrobial activity

Compound: O=NN(CCCl)C(=O)NCCCl [carmustine]
- antimicrobial activity (E. coli K-12 cells; 100 μg/mL): only cisplatin exhibited antimicrobial activity

Compound: O=C(O)c1cn(C2CC2)c2cc(N3CCNCC3)c(F)cc2c1=O [ciprofloxacin]
- MIC (E. coli K-12 [1]): 0.05 µg/mL (≈ 0.151 µM)
- survival (E. coli K-12 [2]; anaerobic, late-stationary phase cells in rich medium (LB)): 0.44±0.08%
- susceptibility of exponential-phase cultures (E. coli K-12 [2]; exponential phase, M9-glucose): similarly susceptible
- persistence (surviving population) (E. coli K-12 [2]; M9-glucose): 10±1%
- cells survived (E. coli O157:H7 (EHEC)): 1.2±0.1%
- survival of the culturable population [3]: 0.40±0.05%
- survival ([4]; exponential phase): 0.55±0.04%
- survival ([4]; mid-stationary phase): 2.2±0.1%
- survival [5]: 18±2%
- survival of the EHEC-infected worms (EHEC infection): enhanced the survival
- survival rate (E. coli BW25113; round 1): 0.045±0.008%
- survival rate (E. coli BW25113; round 2): 0.03±0.01%
- survival rate (E. coli BW25113; round 3): 0.012±0.002%
- time course dependent killing (E. coli K-12 [6]): had little activity
- surviving fraction of persister cells [7]: 9±1%
- cells surviving (EHEC biofilm cultures): 3±1%

Compound: O=P1(N(CCCl)CCCl)NCCCO1 (centres unmarked) [cyclophosphamide]
- antimicrobial activity (E. coli K-12 cells; 100 μg/mL): only cisplatin exhibited antimicrobial activity

Compound: COC1=C(C(=O)O)[C@H](C)[C@@]23O[C@]24c2cc(O)c5c(c2N[C@H]3C#C/C=C\C#C[C@H]14)C(=O)c1c(O)ccc(O)c1C5=O [dynemicin A]
- antimicrobial activity (E. coli K-12 cells): only cisplatin exhibited antimicrobial activity

Compound: N[C@@H](Cc1ccc(N(CCCl)CCCl)cc1)C(=O)O [melphalan]
- antimicrobial activity (E. coli K-12 cells; 100 μg/mL): only cisplatin exhibited antimicrobial activity

Compound: Nc1n[n+]([O-])c2ccccc2[n+]1[O-] [tirapazamine]
- antimicrobial activity (E. coli K-12 cells; 10 μg/mL): only cisplatin exhibited antimicrobial activity

Compound: gentamicin
- persistence (surviving population) (E. coli K-12 [2]; M9-glucose): 44±5%
